Experimental data: the supplement of paper PMC10307832

Columns and labels:
Test in all cases: relative viability (nuclei count vs DMSO), 5 days (fraction); higher = more cells survive
[1] = compound: C=CCNC1=C2C[C@@H](C)C[C@H](OC)[C@H](O)[C@@H](C)/C=C(\C)[C@H](OC(N)=O)[C@@H](OC)/C=C\C=C(/C)C(=O)NC(=CC1=O)C2=O [17-AAG] + CC(=O)Nc1cccc(-n2c(=O)n(C3CC3)c(=O)c3c(Nc4ccc(I)cc4F)n(C)c(=O)c(C)c32)c1 [Trametinib] (partner 0.02 µM)
Procedure, shortened: (§1)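 Each reported value is a median over duplicate plates. It expresses relative viability: treated-well nuclei count divided by vehicle-well nuclei count. Lung cancer cell lines in 1536-well plates were dosed by pin tool a day after seeding, alone with one drug or with a fixed anchor-drug dose plus five library-drug doses (not always all listed) in √10 steps, and nuclei were counted after 5 days.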

[2] = compound: C=CCNC1=C2C[C@@H](C)C[C@H](OC)[C@H](O)[C@@H](C)/C=C(\C)[C@H](OC(N)=O)[C@@H](OC)/C=C\C=C(/C)C(=O)NC(=CC1=O)C2=O [17-AAG] + CS(=O)(=O)N1CCN(Cc2cc3nc(-c4cccc5[nH]ncc45)nc(N4CCOCC4)c3s2)CC1 [Pictilisib] (partner 1 µM)
Procedure, shortened: as §1

[3] = compound: C=CCNC1=C2C[C@@H](C)C[C@H](OC)[C@H](O)[C@@H](C)/C=C(\C)[C@H](OC(N)=O)[C@@H](OC)/C=C\C=C(/C)C(=O)NC(=CC1=O)C2=O [17-AAG] + CC(C)C[C@H](NC(=O)[C@H](Cc1ccccc1)NC(=O)c1cnccn1)B(O)O [Bortezomib] (partner 0.002 µM)
Procedure, shortened: as §1

[4] = compound: C=CCNC1=C2C[C@@H](C)C[C@H](OC)[C@H](O)[C@@H](C)/C=C(\C)[C@H](OC(N)=O)[C@@H](OC)/C=C\C=C(/C)C(=O)NC(=CC1=O)C2=O [17-AAG] + O=C(c1cc(Cc2n[nH]c(=O)c3ccccc23)ccc1F)N1CCN(C(=O)C2CC2)CC1 [Olaparib] (partner 8 µM)
Procedure, shortened: as §1

Cell Line	relative viability ([1]; first compound 0.00128 µM)	relative viability ([1]; first compound 0.004048 µM)	relative viability ([1]; first compound 0.0128 µM)	relative viability ([1]; first compound 0.04048 µM)	relative viability ([1]; first compound 0.128 µM)	relative viability ([2]; first compound 0.00128 µM)	relative viability ([2]; first compound 0.0128 µM)	relative viability ([2]; first compound 0.04048 µM)	relative viability ([2]; first compound 0.128 µM)	relative viability ([3]; first compound 0.00128 µM)	relative viability ([3]; first compound 0.004048 µM)	relative viability ([3]; first compound 0.0128 µM)	relative viability ([3]; first compound 0.04048 µM)	relative viability ([3]; first compound 0.128 µM)	relative viability ([4]; first compound 0.00128 µM)	relative viability ([4]; first compound 0.004048 µM)	relative viability ([4]; first compound 0.0128 µM)	relative viability ([4]; first compound 0.04048 µM)	relative viability ([4]; first compound 0.128 µM)	relative viability ([2]; first compound 0.004048 µM)
HCC-78	0.744	0.593	0.71	0.663	0.359	0.238	0.333	0.24	0.212	0.538	0.482	0.539	0.368	0.6	0.806	0.832	1.07	0.681	0.308	–
HCC-366	0.399	0.389	0.0548	0.0372	0.0284	0.16	0.0477	0.0368	0.0284	0.949	0.785	0.0604	0.0267	0.0245	0.414	0.357	0.0266	0.0306	0.0265	0.0822
HCC-827	0.508	0.508	0.502	–	0.311	1.21	0.923	–	1.02	0.962	0.995	1.04	–	0.849	0.698	0.755	0.769	–	0.331	1.03
HOP-62	0.396	0.35	0.355	0.191	0.167	0.811	0.748	0.11	0.0928	0.701	0.725	0.748	0.46	0.117	0.445	0.411	0.22	0.171	0.0948	0.807
LC-2-ad	0.974	0.954	0.875	0.408	0.223	0.567	0.123	0.124	0.0943	0.97	1.05	0.665	0.119	0.105	0.751	0.728	0.643	0.475	0.225	0.617
LCLC-97TM1	0.201	0.172	0.163	0.232	0.152	0.263	0.211	0.13	0.104	0.431	0.614	0.249	0.125	0.0923	0.423	0.359	0.406	0.302	0.255	0.228
LCLC-103H	0.711	0.692	0.661	0.739	0.669	0.58	0.669	0.73	0.712	1.02	1.17	1.02	1.13	1.09	0.841	0.745	0.755	0.823	0.831	0.583
LOU-NH91	0.795	0.747	0.584	0.434	0.387	0.573	0.451	0.384	0.332	0.483	0.512	0.394	0.401	0.381	0.894	0.759	0.546	0.395	0.386	0.515
LU99A	0.549	0.538	0.508	0.384	0.134	0.308	0.232	0.228	0.144	1.06	1.05	0.672	0.445	0.119	0.271	0.26	0.237	0.165	0.162	0.377
LXF-289	0.667	0.661	0.686	0.58	0.145	0.823	0.239	0.107	0.0836	0.99	0.994	0.815	0.478	0.108	1.06	0.936	0.889	0.817	0.135	0.805
NCI-H23	0.336	0.344	0.246	0.148	0.116	0.468	0.224	0.179	0.145	0.92	0.635	0.232	0.168	0.127	0.364	0.296	0.155	0.109	0.107	0.517
NCI-H322M	0.512	0.547	0.452	0.536	0.403	0.553	0.523	0.259	0.279	1.28	1.38	1.35	0.929	0.493	0.781	0.857	0.409	0.418	0.414	0.564
NCI-H441	0.454	0.439	0.148	0.132	0.0927	0.582	0.285	0.216	0.124	0.506	0.395	0.199	0.181	0.14	0.555	0.547	0.208	0.135	0.124	0.334
NCI-H460	0.202	0.0484	0.0114	0.0258	0.0229	0.404	0.193	0.0668	0.0737	1.03	0.677	0.0227	0.0175	0.0128	0.476	0.318	0.0627	0.0448	0.0462	0.462
NCI-H520	0.706	0.673	0.468	0.154	0.129	0.275	0.207	0.167	0.161	0.512	0.58	0.251	0.14	0.0925	0.34	0.232	0.162	0.136	0.12	0.254
NCI-H596	0.841	0.852	0.767	0.704	0.308	0.363	0.417	0.42	0.253	0.991	0.974	1.09	0.994	0.844	0.784	0.739	0.674	0.48	0.371	0.304
